Experimental data taken from ChEMBL document CHEMBL1201862, “PubChem BioAssay data set” (2004).
Active and inactive are the calls of the source.

Tests used:
[1] = biological target: T1, Corticotropin-releasing factor receptor 2/Corticotropin-releasing factor-binding protein (Homo sapiens, UniProt P24387+Q13324); test: Dose Response confirmation of uHTS hits for small molecule antagonists of the CRF-binding protein and CRF-R2 receptor complex.; format: functional; details: read-out: IC50_Mean
T1 sequence (Q13324 whole entry): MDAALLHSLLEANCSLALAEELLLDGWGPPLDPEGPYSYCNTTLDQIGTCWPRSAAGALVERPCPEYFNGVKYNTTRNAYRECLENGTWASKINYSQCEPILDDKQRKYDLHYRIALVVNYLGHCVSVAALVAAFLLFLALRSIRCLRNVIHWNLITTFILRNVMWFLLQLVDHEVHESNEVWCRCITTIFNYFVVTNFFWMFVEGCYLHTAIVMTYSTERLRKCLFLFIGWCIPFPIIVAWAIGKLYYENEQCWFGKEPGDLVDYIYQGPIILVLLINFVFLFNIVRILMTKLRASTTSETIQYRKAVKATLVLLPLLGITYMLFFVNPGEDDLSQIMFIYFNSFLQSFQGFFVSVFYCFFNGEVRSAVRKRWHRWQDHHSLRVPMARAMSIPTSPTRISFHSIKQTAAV
T1 sequence (P24387 whole entry): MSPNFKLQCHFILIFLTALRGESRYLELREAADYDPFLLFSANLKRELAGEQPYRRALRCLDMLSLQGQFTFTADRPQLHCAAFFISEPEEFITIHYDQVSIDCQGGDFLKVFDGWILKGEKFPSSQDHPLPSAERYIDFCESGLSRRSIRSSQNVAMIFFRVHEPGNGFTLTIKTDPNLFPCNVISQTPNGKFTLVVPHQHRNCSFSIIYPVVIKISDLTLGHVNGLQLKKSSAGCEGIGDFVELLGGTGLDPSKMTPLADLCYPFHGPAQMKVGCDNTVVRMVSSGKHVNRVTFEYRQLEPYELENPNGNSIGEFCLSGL

[2] = biological target: T1, Corticotropin-releasing factor receptor 2/Corticotropin-releasing factor-binding protein; test: activators of CRF receptor 2 with binding protein – uHTS hits, confirmation (AID 602473); format: functional; details: read-out: EC50_Mean
[3] = CRF-BP/CRF-R2 complex antagonists, dose response, cell-based, uHTS hits, 384-well (AID 651639); format: functional, Homo sapiens; details: read-out: IC50_Mean
[4] = Luminescence Cell-Based Dose Retest to Confirm Inhibitors of Cancer Stem Cells. [Related pubchem assays (depositor defined):AID2717, AID2721]; format: functional; details: Homo sapiens
INS1 = test: beta cell apoptosis inhibitors, cytokine rescue, dose response, luminescence, retest (AID 449756); format: functional, cell-based; details: Rattus norvegicus;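 note: cell death triggered by IL-1 beta plus TNF-alpha plus IFN-gamma mixture; protective hits raise ATP signal compared with cytokine alone wells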
[5] = Shn3 3'UTR reporter inhibitors, dose response, cell-based, Clone20 osteoblasts, firefly luciferase, cherry-picked (AID 624132); format: functional;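 note: firefly luciferase luminescence from reporter carrying the Shn3 3'UTR in osteoblasts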
[6] = HepG2 cell cytotoxicity, dose response, cytotoxicity control for Shn3 inhibitor project, CellTiter-Glo, cherry-picked (AID 624134); format: functional, cell-based
[7] = control 3'UTR Renilla luciferase suppression, dose response, counter-screen for Shn3 inhibitor project, cell-based, Clone20-Shn3RL, cherry-picked (AID 624133); format: functional
BJ [8] = test: cytotoxicity toward BJ-TERT fibroblasts, dose response, cell-based, RAS-independent, luminescence (AID 1933); format: functional; details: Homo sapiens
BJ [9] = test: cells; format: functional, cell-based; details: Homo sapiens
BJ [10] = test: cytotoxicity toward BJ-TERT-LT-ST fibroblasts, dose response, cell-based, RAS-independent, luminescence (AID 1935); format: functional; details: Homo sapiens;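 note: BJ fibroblasts immortalized with TERT plus LT and ST oncogenes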
[11] = cytotoxicity toward DRD oncogenic fibroblasts, dose response, cell-based, non-viral oncogenic, luminescence (AID 1934); format: functional; details: Homo sapiens
BJ [12] = test: cytotoxicity toward Ras-transformed BJeLR fibroblasts, dose response, cell-based, alamar blue fluorescence, cherrypicked samples (AID 2631); format: functional; details: Homo sapiens;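 note: confirmatory dose-response assay in RAS-dependent BJ fibroblasts engineered with TERT, LT and ST, with cytotoxicity read by fluorescence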
Melanocortin receptor 4 = Melanocortin receptor 4 (Homo sapiens, UniProt P32245); format: functional, cell-based;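 note: Cell-based assay with luminescence read-out, confirmatory dose-response testing for agonist activity of biased ligands at MC4R; human U2OS cells with tagged receptor and beta-arrestin; potency of agonists that increase receptor coupling to beta-arrestin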
Sequence of Melanocortin receptor 4 (P32245 whole entry): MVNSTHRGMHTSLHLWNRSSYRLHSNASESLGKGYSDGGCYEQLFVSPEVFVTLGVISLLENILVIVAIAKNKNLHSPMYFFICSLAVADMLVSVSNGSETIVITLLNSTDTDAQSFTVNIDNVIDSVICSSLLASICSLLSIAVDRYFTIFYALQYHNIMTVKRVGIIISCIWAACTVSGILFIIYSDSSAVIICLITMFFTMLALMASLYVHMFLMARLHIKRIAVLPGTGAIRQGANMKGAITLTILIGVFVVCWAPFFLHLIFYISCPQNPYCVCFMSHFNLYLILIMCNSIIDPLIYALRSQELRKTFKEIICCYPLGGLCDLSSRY

Protein Wnt-3a = Protein Wnt-3a (Mus musculus, UniProt P27467); test: Wnt3a-driven reporter signaling inhibition, dose response, selectivity assay for Gli-SUFU antagonist project, Wnt-LIGHT cells, luminescence (AID 651570); format: functional; details: read-out: IC50_Mean;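 note: Wnt-LIGHT reporter cells stimulated with conditioned medium from Wnt3a-producing cells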
Sequence of Protein Wnt-3a (P27467 whole entry): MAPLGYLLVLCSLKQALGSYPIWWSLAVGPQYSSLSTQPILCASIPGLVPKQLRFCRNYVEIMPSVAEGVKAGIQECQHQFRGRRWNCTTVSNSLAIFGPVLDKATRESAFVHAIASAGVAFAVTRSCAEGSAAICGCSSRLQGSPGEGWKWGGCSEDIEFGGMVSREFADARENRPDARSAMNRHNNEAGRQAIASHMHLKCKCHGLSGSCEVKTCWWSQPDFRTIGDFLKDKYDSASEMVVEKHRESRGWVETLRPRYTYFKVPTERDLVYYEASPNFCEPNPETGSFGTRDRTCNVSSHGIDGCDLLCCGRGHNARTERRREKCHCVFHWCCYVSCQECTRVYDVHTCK

Large T antigen = Large T antigen (Simian virus 40, UniProt P03070); format: functional, Betapolyomavirus macacae;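 note: Confirmatory-stage PubChem screen for compounds that inhibit SV40 T antigen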
Sequence of Large T antigen (P03070 whole entry): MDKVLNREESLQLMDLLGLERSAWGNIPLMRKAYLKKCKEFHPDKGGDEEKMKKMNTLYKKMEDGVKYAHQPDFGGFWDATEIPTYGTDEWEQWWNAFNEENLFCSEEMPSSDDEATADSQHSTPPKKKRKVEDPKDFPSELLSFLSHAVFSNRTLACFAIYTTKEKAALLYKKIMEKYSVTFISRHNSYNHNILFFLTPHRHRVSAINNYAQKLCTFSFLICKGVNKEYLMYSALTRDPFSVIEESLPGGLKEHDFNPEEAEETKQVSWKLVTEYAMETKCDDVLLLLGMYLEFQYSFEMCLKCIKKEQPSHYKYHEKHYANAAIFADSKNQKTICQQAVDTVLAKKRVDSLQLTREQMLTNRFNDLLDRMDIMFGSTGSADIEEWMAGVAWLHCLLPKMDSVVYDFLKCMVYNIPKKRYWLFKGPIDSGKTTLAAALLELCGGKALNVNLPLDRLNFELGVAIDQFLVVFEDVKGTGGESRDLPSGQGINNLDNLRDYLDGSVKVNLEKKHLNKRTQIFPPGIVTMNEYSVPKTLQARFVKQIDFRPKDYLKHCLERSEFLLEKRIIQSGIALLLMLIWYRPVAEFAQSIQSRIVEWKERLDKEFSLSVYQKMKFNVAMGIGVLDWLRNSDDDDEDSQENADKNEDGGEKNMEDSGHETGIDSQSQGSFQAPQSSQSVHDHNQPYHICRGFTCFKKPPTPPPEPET

[13] = biological target: T2, Calpain-2 catalytic subunit (Sus scrofa, UniProt P43367); test: pig calpain II inhibitor potency, dose response, biochemical, fluorogenic peptide substrate (AID 1420); format: functional
T2 sequence (P43367 whole entry): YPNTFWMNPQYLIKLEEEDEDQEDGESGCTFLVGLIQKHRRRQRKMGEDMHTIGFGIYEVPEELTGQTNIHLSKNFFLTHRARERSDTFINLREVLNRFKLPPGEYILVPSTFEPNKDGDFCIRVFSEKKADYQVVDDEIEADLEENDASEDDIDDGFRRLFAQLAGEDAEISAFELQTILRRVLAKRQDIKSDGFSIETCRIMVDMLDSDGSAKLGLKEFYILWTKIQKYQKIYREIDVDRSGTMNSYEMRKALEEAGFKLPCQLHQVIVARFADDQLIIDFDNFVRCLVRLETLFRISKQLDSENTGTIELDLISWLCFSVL

[14] = biological target: FAD-linked sulfhydryl oxidase ALR (Homo sapiens, UniProt P55789); test: inhibitors of human ALR sulfhydryl oxidase, dose response, biochemical, H2O2 detection, luminescence, cherry-pick (AID 493248)
Sequence of FAD-linked sulfhydryl oxidase ALR (P55789 whole entry): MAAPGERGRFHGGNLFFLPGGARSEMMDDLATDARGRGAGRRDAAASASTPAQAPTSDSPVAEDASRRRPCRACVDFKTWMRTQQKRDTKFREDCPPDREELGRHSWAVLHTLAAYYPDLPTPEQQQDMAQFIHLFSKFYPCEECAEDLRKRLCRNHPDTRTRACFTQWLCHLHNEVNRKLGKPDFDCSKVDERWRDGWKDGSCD

Paired box protein Pax-8 = Paired box protein Pax-8 (Homo sapiens, UniProt Q06710); test: inhibitors of PAX8-driven TPO luciferase reporter, dose response, RMG-I cells, cherry-pick (AID 687027); format: functional, cell-based;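 note: luciferase reporter driven by Pax8 target thyroperoxidase promoter measured by SteadyGlo luminescence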
Sequence of Paired box protein Pax-8 (Q06710 whole entry): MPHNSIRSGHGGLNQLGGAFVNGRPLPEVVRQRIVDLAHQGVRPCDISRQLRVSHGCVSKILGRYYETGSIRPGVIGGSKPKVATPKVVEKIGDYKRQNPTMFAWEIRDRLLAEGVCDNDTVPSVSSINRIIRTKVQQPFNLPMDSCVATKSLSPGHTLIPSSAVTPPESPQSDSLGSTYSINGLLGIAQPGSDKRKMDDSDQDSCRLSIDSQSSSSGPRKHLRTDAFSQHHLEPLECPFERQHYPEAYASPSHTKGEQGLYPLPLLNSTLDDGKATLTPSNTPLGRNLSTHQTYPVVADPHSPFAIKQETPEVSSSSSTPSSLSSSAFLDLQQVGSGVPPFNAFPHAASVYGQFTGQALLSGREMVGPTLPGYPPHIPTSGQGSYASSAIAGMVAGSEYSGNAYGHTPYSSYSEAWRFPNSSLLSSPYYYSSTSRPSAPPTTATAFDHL

[15] = tested on: Streptococcus sp. 'group A'; test: growth inhibition of control SK(-) GAS strain, dose response, counter-screen for streptokinase expression inhibitor project, luminescence, kanamycin, BacTiterGlo, confirmation (AID 1900); format: functional, organism-based
Streptococcus = test: Group A Streptococcus viability loss, dose response, counter-screen for streptokinase expression inhibitor project, luminescence, BacTiterGlo (AID 1915); format: functional, organism-based;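 note: potency for reduction of bacterial viability or growth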
Caspase-3 = biological target: T3, Caspase-3 (Homo sapiens, UniProt P42574); format: functional;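 note: Dose-response selectivity test against caspase-3 for candidate inhibitors of sentrin-specific proteases (SENPs)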
T3 sequence (P42574 whole entry): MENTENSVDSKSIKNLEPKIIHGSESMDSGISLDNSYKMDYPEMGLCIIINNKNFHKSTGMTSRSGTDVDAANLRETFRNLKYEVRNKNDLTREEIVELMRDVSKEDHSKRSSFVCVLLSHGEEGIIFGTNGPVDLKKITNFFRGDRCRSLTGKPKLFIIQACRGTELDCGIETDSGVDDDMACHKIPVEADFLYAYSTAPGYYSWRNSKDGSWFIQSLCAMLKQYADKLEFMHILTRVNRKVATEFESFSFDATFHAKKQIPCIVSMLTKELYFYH

[16] = biological target: T4, Sentrin-specific protease 7 (Homo sapiens, UniProt Q9BQF6); format: functional;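 note: Luminescence-based dose-response confirmation of ultra-high-throughput screening hits, measuring inhibition of SENP7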
T4 sequence (Q9BQF6 whole entry): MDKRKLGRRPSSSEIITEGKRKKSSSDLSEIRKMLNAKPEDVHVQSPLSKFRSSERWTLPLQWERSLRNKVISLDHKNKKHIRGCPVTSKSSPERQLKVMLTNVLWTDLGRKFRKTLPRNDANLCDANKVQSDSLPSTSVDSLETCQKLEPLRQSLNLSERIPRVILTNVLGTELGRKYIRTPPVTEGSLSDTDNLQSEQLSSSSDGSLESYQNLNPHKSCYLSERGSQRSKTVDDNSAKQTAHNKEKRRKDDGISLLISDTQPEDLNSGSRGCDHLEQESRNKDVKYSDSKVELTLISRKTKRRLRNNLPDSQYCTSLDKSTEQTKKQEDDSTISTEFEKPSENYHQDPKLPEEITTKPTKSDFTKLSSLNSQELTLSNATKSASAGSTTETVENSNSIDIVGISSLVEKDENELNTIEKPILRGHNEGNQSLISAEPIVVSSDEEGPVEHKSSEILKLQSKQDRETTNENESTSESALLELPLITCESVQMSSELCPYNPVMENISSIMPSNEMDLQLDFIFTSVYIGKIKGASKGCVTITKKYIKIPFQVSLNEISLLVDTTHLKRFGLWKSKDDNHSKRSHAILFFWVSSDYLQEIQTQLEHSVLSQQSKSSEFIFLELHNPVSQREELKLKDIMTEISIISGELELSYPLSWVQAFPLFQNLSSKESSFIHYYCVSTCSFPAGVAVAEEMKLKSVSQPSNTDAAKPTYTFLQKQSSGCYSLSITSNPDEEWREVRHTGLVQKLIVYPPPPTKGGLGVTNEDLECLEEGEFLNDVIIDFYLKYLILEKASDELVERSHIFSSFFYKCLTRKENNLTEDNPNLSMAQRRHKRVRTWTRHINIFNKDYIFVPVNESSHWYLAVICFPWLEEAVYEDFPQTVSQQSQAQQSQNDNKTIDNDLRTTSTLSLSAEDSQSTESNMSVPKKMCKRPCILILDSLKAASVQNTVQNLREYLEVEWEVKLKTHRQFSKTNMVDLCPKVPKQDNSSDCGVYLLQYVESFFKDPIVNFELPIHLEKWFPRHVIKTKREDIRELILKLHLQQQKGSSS

[17] = biological target: T5, Sentrin-specific protease 6 (Homo sapiens, UniProt Q9GZR1); format: functional;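 note: Luminescence-based dose-response confirmatory assay of SENP6 inhibition, following up an ultra-high-throughput screen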
T5 sequence (Q9GZR1 whole entry): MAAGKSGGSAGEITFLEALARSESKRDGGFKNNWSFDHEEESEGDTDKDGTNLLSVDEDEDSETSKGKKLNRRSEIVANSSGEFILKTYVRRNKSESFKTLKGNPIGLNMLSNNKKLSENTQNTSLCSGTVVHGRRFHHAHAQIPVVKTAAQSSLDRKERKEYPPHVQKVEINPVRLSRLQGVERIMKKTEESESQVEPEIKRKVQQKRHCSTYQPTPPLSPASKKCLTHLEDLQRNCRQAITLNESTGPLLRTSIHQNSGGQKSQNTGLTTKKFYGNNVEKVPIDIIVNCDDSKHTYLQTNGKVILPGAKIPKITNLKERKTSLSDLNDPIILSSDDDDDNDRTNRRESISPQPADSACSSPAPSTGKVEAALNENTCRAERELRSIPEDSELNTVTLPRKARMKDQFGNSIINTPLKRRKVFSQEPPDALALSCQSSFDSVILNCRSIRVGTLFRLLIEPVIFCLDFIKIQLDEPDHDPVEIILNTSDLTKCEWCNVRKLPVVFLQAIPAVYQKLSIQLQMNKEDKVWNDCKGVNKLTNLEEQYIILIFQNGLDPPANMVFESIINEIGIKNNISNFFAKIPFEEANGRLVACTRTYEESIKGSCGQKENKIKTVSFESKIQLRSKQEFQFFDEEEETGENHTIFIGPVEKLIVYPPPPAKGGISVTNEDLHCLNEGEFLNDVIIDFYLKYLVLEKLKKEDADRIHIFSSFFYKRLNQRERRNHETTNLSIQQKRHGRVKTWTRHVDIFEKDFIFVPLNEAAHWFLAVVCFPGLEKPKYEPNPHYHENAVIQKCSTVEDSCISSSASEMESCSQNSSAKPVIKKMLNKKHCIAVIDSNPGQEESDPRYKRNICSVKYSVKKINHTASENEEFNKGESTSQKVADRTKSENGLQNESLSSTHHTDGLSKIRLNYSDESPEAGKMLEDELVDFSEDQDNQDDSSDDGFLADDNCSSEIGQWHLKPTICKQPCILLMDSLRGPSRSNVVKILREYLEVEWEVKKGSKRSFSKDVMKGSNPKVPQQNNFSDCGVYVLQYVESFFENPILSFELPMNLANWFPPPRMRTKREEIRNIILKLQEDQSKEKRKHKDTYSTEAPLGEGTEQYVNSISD

[18] = biological target: T6, Sentrin-specific protease 8 (Homo sapiens, UniProt Q96LD8); format: functional;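 note: luminescence read-out of SENP8 inhibition, dose-response confirmation following an ultra-high-throughput screen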
T6 sequence (Q96LD8 whole entry): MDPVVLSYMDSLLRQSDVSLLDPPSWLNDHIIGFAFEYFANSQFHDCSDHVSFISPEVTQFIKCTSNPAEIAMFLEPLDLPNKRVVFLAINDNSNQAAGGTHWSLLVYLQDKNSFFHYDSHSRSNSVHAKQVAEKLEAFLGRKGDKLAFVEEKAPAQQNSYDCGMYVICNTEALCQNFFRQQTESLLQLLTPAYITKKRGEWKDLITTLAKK

Cc1c(CC(Cl)(Cl)Cl)c2c(n1O)CC(C)(C)CC2=O
IC50 [1]: 2.98 µM (active)
EC50 [2]: 15.9 µM (active)
IC50 [3]: > 20 µM (inactive)

c1ccc(CNc2c(-c3cccc(SC4CCCCC4)c3)nc3ccccn23)cc1
AC50 [4]: 5.29 µM (active)
AC50 (INS1): 5.06 µM (active)
AC50 [5]: 3.46 µM (active)
AC50 [6]: > 70 µM (inactive)
AC50 [7]: 6.09 µM (active)

CCc1ccc(CCC(=O)Nc2ncc(Cc3ccccc3Cl)s2)o1
EC50 (BJ [8]): 2.76 µM (active)
EC50 (BJ [9]): 14 µM (active)
EC50 (BJ [10]): 2.83 µM (active)
EC50 [11]: 3.72 µM (active)
AC50 [4]: 0.184 µM (active)
EC50 (BJ [12]): 1.83 µM (active)
EC50 (Melanocortin receptor 4): > 89.2 µM (inactive)

CCCCCn1c(=N)n(CC(O)COc2ccccc2OC)c2ccccc21 (configuration not stated)
IC50 (Protein Wnt-3a): 8.95 µM (active)

CC(C)(C)NC(=O)NC(=O)CN1CCN(c2ccc(O)cc2)CC1
IC50 (Large T antigen): 21.2 µM (active)
IC50 [13]: 19.1 µM (not active)
AC50 [14]: 4.04 µM (active)
AC50 [5]: 1.9 µM (active)
AC50 [6]: 67.2 µM (active)
AC50 [7]: 5.88 µM (active)

CCC(C)C1NC(=O)C(NC(=O)C(CC(C)C)N(C)C(=O)C2CCCN2C(=O)C(C)O)C(C)OC(=O)C(Cc2ccc(OC)cc2)N(C)C(=O)C2CCCN2C(=O)C(CC(C)C)NC(=O)[C@H](C)C(=O)[C@H](C(C)C)OC(=O)CC1O (some centres not stated)
AC50 [5]: < 0.26 µM (active)
AC50 [6]: > 70 µM (inactive)
AC50 [7]: < 0.26 µM (active)
AC50 (Paired box protein Pax-8): < 0.26 µM (active)

CCOc1ccc(OCc2ccc(C(=O)NN=Cc3ccc[nH]3)cc2)cc1
AC50 (INS1): 0.372 µM (active)
IC50 (Protein Wnt-3a): 5.48 µM (active)

Clc1ccc(-c2c[n+](-c3ccc(Cl)cc3)c3n2CCCCC3)cc1
IC50 (Protein Wnt-3a): 26.4 µM (inactive)

COc1cc(O)c(CC=C(C)C)c(O)c1C(=O)CCc1ccc(O)cc1 [DIHYDROXANTHOHUMOL]
EC50 [15]: 2.79 µM (active)
IC50 [13]: 5 µM (not active)
EC50 (Streptococcus): 3.05 µM (active)
IC50 (Caspase-3): > 100 µM (inactive)
IC50 [16]: 7.82 µM (active)
IC50 [17]: 10 µM (active)
IC50 [18]: 13.3 µM (active)
EC50 (Melanocortin receptor 4): > 89.2 µM (inactive)
